{
  "source": "patent US20220062243A1",
  "about": "“P14-Kinase Inhibitors with Anti-Cancer Activity” (The Board of Trustees of the Leland Stanford Junior …, priority 2019, published 2022)",
  "data": [
    {"target": "PI4K-IIIβ (Homo sapiens, UniProt Q9UBF8)", "sequence (Q9UBF8 whole entry)": "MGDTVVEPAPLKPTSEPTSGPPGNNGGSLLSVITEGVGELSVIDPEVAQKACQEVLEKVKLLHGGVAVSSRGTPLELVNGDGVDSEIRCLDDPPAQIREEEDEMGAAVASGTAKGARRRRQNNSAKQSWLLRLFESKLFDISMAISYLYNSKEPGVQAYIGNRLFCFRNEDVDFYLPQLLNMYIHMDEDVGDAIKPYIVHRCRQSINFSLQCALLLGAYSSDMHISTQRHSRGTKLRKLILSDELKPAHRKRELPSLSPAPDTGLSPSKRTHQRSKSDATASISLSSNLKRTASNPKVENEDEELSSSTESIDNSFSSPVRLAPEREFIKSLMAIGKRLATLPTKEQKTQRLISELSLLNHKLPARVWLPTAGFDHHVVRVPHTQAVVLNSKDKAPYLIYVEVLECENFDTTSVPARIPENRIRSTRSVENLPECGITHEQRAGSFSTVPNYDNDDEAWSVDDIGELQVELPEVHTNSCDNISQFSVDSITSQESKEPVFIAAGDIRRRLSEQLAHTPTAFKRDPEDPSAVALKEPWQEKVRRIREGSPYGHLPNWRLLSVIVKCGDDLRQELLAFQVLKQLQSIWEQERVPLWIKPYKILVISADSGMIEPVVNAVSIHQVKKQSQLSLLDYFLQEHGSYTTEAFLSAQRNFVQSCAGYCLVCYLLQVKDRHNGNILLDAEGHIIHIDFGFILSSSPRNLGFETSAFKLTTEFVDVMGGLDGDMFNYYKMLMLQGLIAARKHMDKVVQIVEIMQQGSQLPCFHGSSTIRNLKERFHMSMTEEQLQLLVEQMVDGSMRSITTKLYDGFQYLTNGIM", "experiment": "PI-kinase assay (membrane capture assay for lipid kinase activity), PI4KIIIβ", "format": "biochemical", "conditions": "read-out: PI4KIIIβ kinase activity (IC50 class)", "protocol": "PI4-kinase inhibition can be determined by a kinase activity assay, e.g., by an assay that determines the level of incorporation of radiolabeled phosphate from [γ-^32P]-ATP into a substrate molecule after treatment with a subject compound, relative to a control, by measuring the beta-particle emission rate using a scintillation counter or phosphorimaging.\nPI-kinase assay: Compounds are tested in C.1.1. PI kinase assays as described by Shokat et al., “A membrane capture assay for lipid kinase activity.” Nat. Protoc. […] Selected compounds of Table 1 and 2 were prepared and tested for inhibition activity in a variety of kinase assays.", "units": {"IC50": "nM"}, "values": [
      {"smiles": "COc1ccc(-c2sc(NCC3CCCCC3)nc2C)cc1S(=O)(=O)NC1CCN(C2CC2)CC1", "note": "[Compound S-135, 5-[2-(cyclohexylmethylamino)-4-methyl-thiazol-5-yl]-N-(1-cyclopropyl-4-piperidyl)-2-methoxy-benzenesulfonamide]", "IC50": "< 100"},
      {"smiles": "COc1ccc(-c2sc(NCC(C)C)nc2C)cc1S(=O)(=O)NC1CCCC(O)C1", "note": "(centres unmarked) [Compound S-223, N-(3-hydroxycyclohexyl)-5-[2-(isobutylamino)-4-methyl-thiazol-5-yl]-2-methoxy-benzenesulfonamide;2,2,2-trifluoroacetic acid]", "IC50": "< 100"},
      {"smiles": "COc1ccc(-c2sc(NC(=O)CC3CCOCC3)nc2C)cc1S(=O)(=O)Nc1cc(C)cc(O)c1", "note": "[Compound S-169, N-[5-[3-[(3-hydroxy-5-methyl-phenyl)sulfamoyl]-4-methoxy-phenyl]-4-methyl-thiazol-2-yl]-2-tetrahydropyran-4-yl-acetamide]", "IC50": "< 100"},
      {"smiles": "COc1ccc(-c2sc(NCC3CCCCC3)nc2C)cc1S(=O)(=O)NC1CCN(C2CCCCC2)CC1", "note": "[Compound S-136, 5-[2-(cyclohexylmethylamino)-4-methyl-thiazol-5-yl]-N-(1-cyclohexyl-4-piperidyl)-2-methoxy-benzenesulfonamide]", "IC50": "< 100"},
      {"smiles": "COc1ccc(-c2sc(N[C@H](C)C3CCCCC3)nc2C)cc1S(=O)(=O)N[C@H]1CC[C@H](O)CC1", "note": "[Compound S-193, 5-[2-[[(1R)-1-cyclohexylethyl]amino]-4-methyl-thiazol-5-yl]-N-(4-hydroxycyclohexyl)-2-methoxy-benzenesulfonamide]", "IC50": "< 100"},
      {"smiles": "Cc1ccc(-c2sc(NC(=O)CC3CCCC3)nc2C)cc1S(=O)(=O)NC1CCCNC1", "note": "(centres unmarked) [Compound S-189, 2-cyclopentyl-N-[4-methyl-5-[4-methyl-3-(3-piperidylsulfamoyl)phenyl]thiazol-2-yl]acetamide]", "IC50": "< 100"},
      {"smiles": "COc1ccc(-c2sc(NC(=O)CC3CCOCC3)nc2C)cc1S(=O)(=O)Nc1ccccc1F", "note": "[Compound S-230, N-[5-[3-[(2-fluorophenyl)sulfamoyl]-4-methoxy-phenyl]-4-methyl-thiazol-2-yl]-2-tetrahydropyran-4-yl-acetamide]", "IC50": "< 100"},
      {"smiles": "COc1ccc(-c2sc(NCCC3CCCCC3)nc2C)cc1S(=O)(=O)NC1CCNCC1", "note": "[Compound S-202, 5-[2-(2-cyclohexylethylamino)-4-methyl-thiazol-5-yl]-2-methoxy-N-(4-piperidyl)benzenesulfonamide]", "IC50": "< 100"},
      {"smiles": "COc1ccc(-c2sc(NC(=O)CC3CCCC3)nc2C)cc1S(=O)(=O)N[C@H]1CC[C@H](O)CC1", "note": "[Compound S-151, 2-cyclopentyl-N-[5-[3-[(4-hydroxycyclohexyl)sulfamoyl]-4-methoxy-phenyl]-4-methyl-thiazol-2-yl]acetamide]", "IC50": "< 100"},
      {"smiles": "COc1ccc(-c2sc(NCC3CCCCC3)nc2C)cc1S(=O)(=O)NCC1CCCCC1", "note": "[Compound S-128, N-(cyclohexylmethyl)-5-[2-(cyclohexylmethylamino)-4-methyl-thiazol-5-yl]-2-methoxy-benzenesulfonamide]", "IC50": "100 to 1000"},
      {"smiles": "COc1ncc(-c2sc(NC(=O)CC3CCOCC3)nc2C)cc1S(=O)(=O)NC1CCCC(O)C1", "note": "(centres unmarked) [Compound S-263]", "IC50": "< 100"},
      {"smiles": "COc1ccc(-c2sc(NC(=O)CCC3CCCC3)nc2C)cc1S(=O)(=O)N[C@H]1CC[C@H](O)CC1", "note": "[Compound S-156, 3-cyclopentyl-N-[5-[3-[(4-hydroxycyclohexyl)sulfamoyl]-4-methoxy-phenyl]-4-methyl-thiazol-2-yl]propanamide]", "IC50": "< 100"},
      {"smiles": "COc1ncc(-c2sc(NC(=O)CC3CCOCC3)nc2C)cc1S(=O)(=O)Nc1cccc(O)c1", "note": "[Compound S-259]", "IC50": "< 100"},
      {"smiles": "COc1ccc(-c2sc(NC(=O)C3CCCC3)nc2C)cc1S(=O)(=O)Nc1ccc(CO)cc1", "note": "[Compound S-41, N-[5-[3-[[4-(hydroxymethyl)phenyl]sulfamoyl]-4-methoxy-phenyl]-4-methyl-thiazol-2-yl]cyclopentanecarboxamide]", "IC50": "< 100"},
      {"smiles": "COc1ccc(-c2sc(NCC3CCCCC3)nc2C)cc1S(=O)(=O)NC1CCCC(O)C1", "note": "(centres unmarked) [Compound S-199, 5-[2-(cyclohexylmethylamino)-4-methyl-thiazol-5-yl]-N-(3-hydroxycyclohexyl)-2-methoxy-benzenesulfonamide]", "IC50": "< 100"},
      {"smiles": "COc1ccc(-c2sc(N[C@H](C)C3CCCCC3)nc2C)cc1S(=O)(=O)N[C@H]1CC[C@@H](O)CC1", "note": "[Compound S-198, 5-[2-[[(1R)-1-cyclohexylethyl]amino]-4-methyl-thiazol-5-yl]-N-(4-hydroxycyclohexyl)-2-methoxy-benzenesulfonamide]", "IC50": "100 to 1000"},
      {"smiles": "COc1ccc(-c2sc(NC(C)C)nc2C)cc1S(=O)(=O)N[C@H]1CC[C@H](O)CC1", "note": "[Compound S-215, N-(4-hydroxycyclohexyl)-5-[2-(isopropylamino)-4-methyl-thiazol-5-yl]-2-methoxy-benzenesulfonamide]", "IC50": "< 100"},
      {"smiles": "COc1ccc(-c2sc(NCC3CCCCC3)nc2C)cc1S(=O)(=O)NC1CCN(C(C)C)CC1", "note": "[Compound S-134, 5-[2-(cyclohexylmethylamino)-4-methyl-thiazol-5-yl]-N-(1-isopropyl-4-piperidyl)-2-methoxy-benzenesulfonamide]", "IC50": "< 100"},
      {"smiles": "COc1ccc(-c2sc(N[C@H](C)C3CCCCC3)nc2C)cc1S(=O)(=O)N[C@@H]1CCNC1", "note": "[Compound S-197, 5-[2-[[(1R)-1-cyclohexylethyl]amino]-4-methyl-thiazol-5-yl]-2-methoxy-N-[(3R)-pyrrolidin-3-yl]benzenesulfonamide]", "IC50": "< 100"},
      {"smiles": "COc1ccc(-c2sc(NC3CCCCC3)nc2C)cc1S(=O)(=O)N[C@H]1CC[C@@H](O)CC1", "note": "[Compound S-167, 5-[2-(cyclohexylamino)-4-methyl-thiazol-5-yl]-N-(4-hydroxycyclohexyl)-2-methoxy-benzenesulfonamide]", "IC50": "< 100"},
      {"smiles": "COc1ccc(-c2sc(NC(=O)CC3CCCC3)nc2C)cc1S(=O)(=O)N1CC[C@@H](O)C1", "note": "[Compound S-153, 2-cyclopentyl-N-[5-[3-[(3R)-3-hydroxypyrrolidin-1-yl]sulfonyl-4-methoxy-phenyl]-4-methyl-thiazol-2-yl]acetamide]", "IC50": "< 100"},
      {"smiles": "COc1ncc(-c2sc(NC(=O)CC3CCOCC3)nc2C)cc1S(=O)(=O)Nc1ccc(F)cc1F", "note": "[Compound S-258]", "IC50": "1000 to 10000"},
      {"smiles": "COc1ccc(-c2sc(NC3CCCCC3)nc2C)cc1S(=O)(=O)N[C@H]1CC[C@H](O)CC1", "note": "[Compound S-166, 5-[2-(cyclohexylamino)-4-methyl-thiazol-5-yl]-N-(4-hydroxycyclohexyl)-2-methoxy-benzenesulfonamide]", "IC50": "< 100"},
      {"smiles": "COc1ccc(-c2sc(NC(C)(C)C)nc2C)cc1S(=O)(=O)N[C@H]1CC[C@H](O)CC1", "note": "[Compound S-216, 5-[2-(tert-butylamino)-4-methyl-thiazol-5-yl]-N-(4-hydroxycyclohexyl)-2-methoxy-benzenesulfonamide]", "IC50": "< 100"},
      {"smiles": "COc1ccc(-c2sc(NCC(C)C)nc2C)cc1S(=O)(=O)N[C@H]1CC[C@H](O)CC1", "note": "[Compound S-221, N-(4-hydroxycyclohexyl)-5-[2-(isobutylamino)-4-methyl-thiazol-5-yl]-2-methoxy-benzenesulfonamide]", "IC50": "< 100"},
      {"smiles": "COc1ccc(-c2sc(NC(C)(C)C)nc2C)cc1S(=O)(=O)NC1CCNCC1", "note": "[Compound S-219, 5-[2-(tert-butylamino)-4-methyl-thiazol-5-yl]-2-methoxy-N-(4-piperidyl)benzenesulfonamide]", "IC50": "< 100"},
      {"smiles": "COc1ccc(-c2sc(NCC(C)C)nc2C)cc1S(=O)(=O)N[C@H]1CC[C@@H](O)CC1", "note": "[Compound S-222, N-(4-hydroxycyclohexyl)-5-[2-(isobutylamino)-4-methyl-thiazol-5-yl]-2-methoxy-benzenesulfonamide]", "IC50": "< 100"},
      {"smiles": "COc1ccc(-c2sc(NC3CCCCCC3)nc2C)cc1S(=O)(=O)Nc1c(C)cccc1C", "note": "[Compound S-98, 5-[2-(cycloheptylamino)-4-methyl-thiazol-5-yl]-N-(2,6-dimethylphenyl)-2-methoxy-benzenesulfonamide;2,2,2-trifluoroacetic acid]", "IC50": "< 100"},
      {"smiles": "COc1ncc(-c2sc(NC(=O)CC3CCOCC3)nc2C)cc1S(=O)(=O)Nc1ccc(F)cc1F", "note": "[Compound S-260]", "IC50": "< 100"},
      {"smiles": "COc1ncc(-c2sc(NC(=O)CC3CCOCC3)nc2C)cc1S(=O)(=O)Nc1cccc(C(=O)O)c1", "note": "[Compound S-265]", "IC50": "< 100"},
      {"smiles": "COc1ccc(-c2sc(NC3CCCCC3)nc2C)cc1S(=O)(=O)NC1CCCC1", "note": "[Compound S-129, 5-[2-(cyclohexylamino)-4-methyl-thiazol-5-yl]-N-cyclopentyl-2-methoxy-benzenesulfonamide]", "IC50": "100 to 1000"},
      {"smiles": "COc1ccc(-c2sc(N[C@@H](C)C3CCCCC3)nc2C)cc1S(=O)(=O)N[C@H]1CC[C@H](O)CC1", "note": "[Compound S-183, 5-[2-[[(1S)-1-cyclohexylethyl]amino]-4-methyl-thiazol-5-yl]-N-(4-hydroxycyclohexyl)-2-methoxy-benzenesulfonamide]", "IC50": "< 100"},
      {"smiles": "COc1ccc(-c2sc(NC(=O)CC3CCOCC3)nc2C)cc1S(=O)(=O)Nc1cccc(C)c1", "note": "[Compound S-226, N-[5-[4-methoxy-3-(m-tolylsulfamoyl)phenyl]-4-methyl-thiazol-2-yl]-2-tetrahydropyran-4-yl-acetamide]", "IC50": "< 100"},
      {"smiles": "COc1ccc(-c2sc(NC(=O)CC3CCOCC3)nc2C)cc1S(=O)(=O)Nc1ccc(F)cc1", "note": "[Compound S-170, N-[5-[3-[(4-fluorophenyl)sulfamoyl]-4-methoxy-phenyl]-4-methyl-thiazol-2-yl]-2-tetrahydropyran-4-yl-acetamide]", "IC50": "< 100"},
      {"smiles": "COc1ccc(-c2sc(NCC3CCCCC3)nc2C)cc1S(=O)(=O)NC1CC1", "note": "[Compound S-127, 5-[2-(cyclohexylmethylamino)-4-methyl-thiazol-5-yl]-N-cyclopropyl-2-methoxy-benzenesulfonamide]", "IC50": "100 to 1000"}
    ]}
  ]
}
